The assay relates to SMAD2. As to the kind of experiment: Western blot of nuclear phosphorylated SMAD2 in left ventricle tissue. It is filed as in vivo, rat. The note with it: HT Dahl/SS rats, 50 or 100 ng/kg/day s.c. (pooled), FIG. 2E. The procedure:
A total of 29 adult Dahl salt-sensitive (Dahl/SS) male rats with an initial weight of 150 to 200 g were included in the study. Rats were purchased from Charles River Laboratories (USA) and housed in a room with a 12/12-hour light cycle, a temperature of 21° C., and a humidity of 55%. Rats were maintained on a normal salt diet up to seven weeks of age. Twenty-two Dahl/SS were then randomly switched to a high salt diet for 6 weeks to induce hypertension, whilst 7 rats were kept normotensive (NT) on normal salt diet. Drinking water and food was provided ad libitum.
After 2 weeks of high salt diet, 15 hypertensive (HT) rats were started on treatment with proANP31-67. […]
Enriched nuclear protein fraction from left ventricle tissue was isolated using Compartment Protein Extraction Kit (Merck Millipore, Cat. #2145), according to the manufacturer's specifications. Protein concentration was measured by BCA assay kit (Thermo Fisher Scientific, Cat. #23225). […] Membranes were analysed with rabbit anti-SMAD2/3 (1:1000, Cell Signaling Technology, Cat. #8685) and rabbit anti-phospho-SMAD2 (Ser465/467) (1:500, Cell Signaling Technology, Cat. #3108). The membranes were developed using the ECL system (Pierce Protein Research Products) and ChemiDoc XRS (Bio-Rad), and quantified using Image Lab™ software (version 6.0.1, Bio-Rad).
(In general: A western blot detects proteins with antibodies after separation by electrophoresis.)

The results in this text go back to patent publication US20230173029A1, “TREATMENT OF CARDIAC REMODELLING” (UNIVERSITETET I OSLO, priority 2020, published 2023).

As for “proANP31-67: Human proANP31-67, linear peptide fragment of proANP consisting of SEQ ID NO: 1; also known as vessel dilator, VSDL (EVVPPQVLSEPNEEAGAALSPLPEVPPWTGEVSPAQR; listed as Homo sapiens)”, the “SMAD2 phosphorylation (nuclear) compared to untreated HT rats” value is on record as “significantly lower”.
